In ChEMBL document CHEMBL3853278, “Metabolomic Profiling Reveals the N-Acyl-Taurine Geodiataurine in Extracts from the Marine Sponge Geodia macandrewii (Bowerbank)” (J Nat Prod, 2016):

Assay: Cytotoxicity in human A2058 cells assessed as reduction in cell viability after 72 hrs by cell titer 96 aqueous one assay
Assay type: functional, cell-based
Conditions: A2058, 72 h

SMILES: CC(C)=CCC/C(C)=C/CC/C(C)=C/CCC(C)C(=O)NCCS(=O)(=O)O (stereo unspecified)
- IC50: 8.5 µM
